Measurements: ChEMBL document CHEMBL3885881, “DrugMatrix”

Species on record: Rattus norvegicus
Assay: DrugMatrix - Regimen: Daily Repeat
Assay type: toxicity, organism-based, Sprague-Dawley
Design: regimen Daily Repeat, gender Male, age 6-8 weeks
Conditions: in vivo, po, route oral GAVAGE, […]; for ABSOLUTE BASOPHIL / ABSOLUTE EOSINOPHIL / ABSOLUTE LYMPHOCYTE / ABSOLUTE MONOCYTE / ABSOLUTE SEGMENTED NEUTROPHIL / BASOPHIL / EOSINOPHIL / ERYTHROCYTE COUNT / HEMATOCRIT / HEMOGLOBIN / LEUKOCYTE COUNT / LYMPHOCYTE / MEAN CORPUSCULAR HEMOGLOBIN / MEAN CORPUSCULAR HEMOGLOBIN CONCENTRATION / MEAN CORPUSCULAR VOLUME / MONOCYTE / NEUTROPHIL / NUCLEATED RED BLOOD CELLS / PLATELET COUNT: tissue Blood; for ALANINE AMINOTRANSFERASE / ALBUMIN / ALKALINE PHOSPHATASE / ASPARTATE AMINOTRANSFERASE / BLOOD UREA NITROGEN / CARBON DIOXIDE / CHLORIDE / CHOLESTEROL / CREATINE PHOSPHOKINASE / CREATININE / GLUCOSE / LACTATE DEHYDROGENASE / LIPASE / PHOSPHORUS / POTASSIUM / SODIUM / TOTAL BILIRUBIN / TOTAL PROTEIN / URIC ACID: tissue Plasma
[1] = 3 mg/kg, 120 h, dose level Low, time 5 day
[2] = 775 mg/kg, 72 h, dose level High, time 3 day
[3] = 775 mg/kg, 120 h, dose level High, time 5 day

With `CS(=O)(=O)c1ccc(C2=C(c3ccccc3)C(=O)OC2)cc1` [ROFECOXIB] as the compound, how does the “ABSOLUTE BASOPHIL” value [1] read?
Its value is 0 CELLS/uL.

And the “ABSOLUTE EOSINOPHIL” value [1]?
Its value is 0 CELLS/uL.

And the “ABSOLUTE LYMPHOCYTE” value [1]?
Its value is 7546 CELLS/uL.

What about the “ABSOLUTE MONOCYTE” value [1] of the same compound?
The value was 71.67 CELLS/uL.

What about the “ABSOLUTE SEGMENTED NEUTROPHIL” value [1] of the same compound?
Its value is 782.33 CELLS/uL.

What about the BASOPHIL [1] of the same compound?
The BASOPHIL was 0%.

What about the EOSINOPHIL [1] of the same compound?
The EOSINOPHIL was 0%.

What about the “ERYTHROCYTE COUNT” value [1] of the same compound?
The value was 5.17 x10E6/uL.

And the HEMATOCRIT [1]?
The HEMATOCRIT was 33.27%.

And the HEMOGLOBIN [1]?
Its HEMOGLOBIN is 13.07 G/DL.

What about the “LEUKOCYTE COUNT” value [1] of the same compound?
Its value is 8.4 x10E3/uL.

And the LYMPHOCYTE [1]?
The LYMPHOCYTE was 90.67%.

And the “MEAN CORPUSCULAR HEMOGLOBIN” value [1]?
The value was 25.27 pg.

What about the “MEAN CORPUSCULAR HEMOGLOBIN CONCENTRATION” value [1] of the same compound?
Its value is 39.27 G/DL.

And the “MEAN CORPUSCULAR VOLUME” value [1]?
The value was 64.33 fL.

What about the MONOCYTE [1] of the same compound?
Its MONOCYTE is 1%.

And the NEUTROPHIL [1]?
Its NEUTROPHIL is 8.33%.

And the “NUCLEATED RED BLOOD CELLS” value [1]?
Its value is 0 /100WBC.

What about the “PLATELET COUNT” value [1] of the same compound?
The value was 1212.67 x10E3/uL.

What about the “ALANINE AMINOTRANSFERASE” value [1] of the same compound?
The value was 57.33 u/L.

And the ALBUMIN [1]?
Its ALBUMIN is 4.17 G/DL.

What about the “ALKALINE PHOSPHATASE” value [1] of the same compound?
Its value is 300.67 u/L.

And the “ASPARTATE AMINOTRANSFERASE” value [1]?
The value was 85.67 u/L.

And the “BLOOD UREA NITROGEN” value [1]?
Its value is 12.33 mg/dL.

What about the “CARBON DIOXIDE” value [1] of the same compound?
Its value is 27.67 mmol/L.

And the CHLORIDE [1]?
The CHLORIDE was 100.67 MEQ/L.

What about the CHOLESTEROL [1] of the same compound?
Its CHOLESTEROL is 62 mg/dL.

What about the “CREATINE PHOSPHOKINASE” value [1] of the same compound?
Its value is 325.33 u/L.

What about the CREATININE [1] of the same compound?
The CREATININE was 0.22 mg/dL.

And the GLUCOSE [1]?
The GLUCOSE was 165 mg/dL.

And the “LACTATE DEHYDROGENASE” value [1]?
Its value is 77 u/L.

What about the LIPASE [1] of the same compound?
The LIPASE was 11.33 u/L.

And the PHOSPHORUS [1]?
Its PHOSPHORUS is 9.4 mg/dL.

And the POTASSIUM [1]?
Its POTASSIUM is 6.14 MEQ/L.

And the SODIUM [1]?
Its SODIUM is 145.9 MEQ/L.

And the “TOTAL BILIRUBIN” value [1]?
Its value is 0.13 mg/dL.

What about the “TOTAL PROTEIN” value [1] of the same compound?
Its value is 6.1 G/DL.

What about the “URIC ACID” value [1] of the same compound?
The value was 0.73 mg/dL.

What about the “ABSOLUTE BASOPHIL” value [2] of the same compound?
The value was 0 CELLS/uL.

And the “ABSOLUTE EOSINOPHIL” value [2]?
The value was 0 CELLS/uL.

What about the “ABSOLUTE LYMPHOCYTE” value [2] of the same compound?
The value was 11625.33 CELLS/uL.

What about the “ABSOLUTE MONOCYTE” value [2] of the same compound?
The value was 298.67 CELLS/uL.

What about the “ABSOLUTE SEGMENTED NEUTROPHIL” value [2] of the same compound?
Its value is 1009.33 CELLS/uL.

And the BASOPHIL [2]?
The BASOPHIL was 0%.

And the EOSINOPHIL [2]?
Its EOSINOPHIL is 0%.

What about the “ERYTHROCYTE COUNT” value [2] of the same compound?
The value was 5.13 x10E6/uL.

And the HEMATOCRIT [2]?
Its HEMATOCRIT is 32.27%.

And the HEMOGLOBIN [2]?
Its HEMOGLOBIN is 12.53 G/DL.

What about the “LEUKOCYTE COUNT” value [2] of the same compound?
Its value is 12.93 x10E3/uL.

And the LYMPHOCYTE [2]?
The LYMPHOCYTE was 90%.

And the “MEAN CORPUSCULAR HEMOGLOBIN” value [2]?
The value was 24.43 pg.

And the “MEAN CORPUSCULAR HEMOGLOBIN CONCENTRATION” value [2]?
The value was 38.83 G/DL.

And the “MEAN CORPUSCULAR VOLUME” value [2]?
Its value is 62.93 fL.

And the MONOCYTE [2]?
Its MONOCYTE is 2.33%.

And the NEUTROPHIL [2]?
Its NEUTROPHIL is 7.67%.

And the “NUCLEATED RED BLOOD CELLS” value [2]?
The value was 0.33 /100WBC.

And the “PLATELET COUNT” value [2]?
The value was 877.67 x10E3/uL.

What about the “ALANINE AMINOTRANSFERASE” value [2] of the same compound?
The value was 55.33 u/L.

What about the ALBUMIN [2] of the same compound?
Its ALBUMIN is 3.53 G/DL.

What about the “ALKALINE PHOSPHATASE” value [2] of the same compound?
Its value is 313.67 u/L.

And the “ASPARTATE AMINOTRANSFERASE” value [2]?
Its value is 81.33 u/L.

What about the “BLOOD UREA NITROGEN” value [2] of the same compound?
Its value is 14.33 mg/dL.

What about the “CARBON DIOXIDE” value [2] of the same compound?
The value was 26.67 mmol/L.

And the CHLORIDE [2]?
The CHLORIDE was 99.33 MEQ/L.

And the CHOLESTEROL [2]?
Its CHOLESTEROL is 77.67 mg/dL.

What about the “CREATINE PHOSPHOKINASE” value [2] of the same compound?
Its value is 192.67 u/L.

And the CREATININE [2]?
Its CREATININE is 0.21 mg/dL.

What about the GLUCOSE [2] of the same compound?
Its GLUCOSE is 185.67 mg/dL.

And the “LACTATE DEHYDROGENASE” value [2]?
The value was 91.33 u/L.

And the LIPASE [2]?
Its LIPASE is 22.33 u/L.

What about the PHOSPHORUS [2] of the same compound?
The PHOSPHORUS was 10.4 mg/dL.

What about the POTASSIUM [2] of the same compound?
Its POTASSIUM is 5.68 MEQ/L.

And the SODIUM [2]?
The SODIUM was 144.1 MEQ/L.

What about the “TOTAL BILIRUBIN” value [2] of the same compound?
The value was 0.1 mg/dL.

What about the “TOTAL PROTEIN” value [2] of the same compound?
Its value is 5.6 G/DL.

What about the “URIC ACID” value [2] of the same compound?
Its value is 0.87 mg/dL.

What about the “ABSOLUTE BASOPHIL” value [3] of the same compound?
Its value is 0 CELLS/uL.

And the “ABSOLUTE EOSINOPHIL” value [3]?
Its value is 72.67 CELLS/uL.

What about the “ABSOLUTE LYMPHOCYTE” value [3] of the same compound?
The value was 8378 CELLS/uL.

And the “ABSOLUTE MONOCYTE” value [3]?
Its value is 35.33 CELLS/uL.

And the “ABSOLUTE SEGMENTED NEUTROPHIL” value [3]?
The value was 1314 CELLS/uL.

And the BASOPHIL [3]?
Its BASOPHIL is 0%.

What about the EOSINOPHIL [3] of the same compound?
The EOSINOPHIL was 0.67%.

What about the “ERYTHROCYTE COUNT” value [3] of the same compound?
The value was 4.79 x10E6/uL.

And the HEMATOCRIT [3]?
The HEMATOCRIT was 30.33%.

What about the HEMOGLOBIN [3] of the same compound?
The HEMOGLOBIN was 11.77 G/DL.

And the “LEUKOCYTE COUNT” value [3]?
Its value is 9.8 x10E3/uL.

And the LYMPHOCYTE [3]?
The LYMPHOCYTE was 84%.

And the “MEAN CORPUSCULAR HEMOGLOBIN” value [3]?
Its value is 24.53 pg.

What about the “MEAN CORPUSCULAR HEMOGLOBIN CONCENTRATION” value [3] of the same compound?
Its value is 38.8 G/DL.

What about the “MEAN CORPUSCULAR VOLUME” value [3] of the same compound?
The value was 63.33 fL.

And the MONOCYTE [3]?
Its MONOCYTE is 0.67%.

And the NEUTROPHIL [3]?
The NEUTROPHIL was 14.67%.

And the “NUCLEATED RED BLOOD CELLS” value [3]?
Its value is 0 /100WBC.

And the “PLATELET COUNT” value [3]?
The value was 1142 x10E3/uL.

What about the “ALANINE AMINOTRANSFERASE” value [3] of the same compound?
The value was 51 u/L.

What about the ALBUMIN [3] of the same compound?
Its ALBUMIN is 3.33 G/DL.

What about the “ALKALINE PHOSPHATASE” value [3] of the same compound?
Its value is 298.67 u/L.

What about the “ASPARTATE AMINOTRANSFERASE” value [3] of the same compound?
Its value is 77.33 u/L.

What about the “BLOOD UREA NITROGEN” value [3] of the same compound?
Its value is 12.67 mg/dL.

What about the “CARBON DIOXIDE” value [3] of the same compound?
Its value is 28 mmol/L.

And the CHLORIDE [3]?
The CHLORIDE was 99.67 MEQ/L.

And the CHOLESTEROL [3]?
Its CHOLESTEROL is 80 mg/dL.

What about the “CREATINE PHOSPHOKINASE” value [3] of the same compound?
The value was 192.67 u/L.

What about the CREATININE [3] of the same compound?
Its CREATININE is 0.34 mg/dL.

And the GLUCOSE [3]?
Its GLUCOSE is 160.67 mg/dL.

And the “LACTATE DEHYDROGENASE” value [3]?
The value was 72 u/L.

What about the LIPASE [3] of the same compound?
Its LIPASE is 12.67 u/L.

What about the PHOSPHORUS [3] of the same compound?
Its PHOSPHORUS is 9.2 mg/dL.

And the POTASSIUM [3]?
The POTASSIUM was 5.83 MEQ/L.

What about the SODIUM [3] of the same compound?
Its SODIUM is 144.83 MEQ/L.

And the “TOTAL BILIRUBIN” value [3]?
Its value is 0.1 mg/dL.

What about the “TOTAL PROTEIN” value [3] of the same compound?
The value was 5.6 G/DL.

And the “URIC ACID” value [3]?
The value was 0.7 mg/dL.
